The test system of series [1] is human normal lung cell line BEAS-2B. The experiment in a line: colony forming assay (cytotoxicity). Format: cell-based. How it is done: A colony forming assay was performed to confirm the cytotoxicity of the novel isoquinoline derivatives of the present disclosure. Specifically, the isoquinoline derivatives were treated to the human normal lung cell line BEAS-2B for 24 hours, followed by culturing for 2 weeks to analyze the colony formed. As controls, a control group (con) that was not treated with anything and a positive control treated with CCCP, which induces mitophagy activity but also causes mitochondrial dysfunction and toxicity, were used.

Series [2] shares this test system. Description: mitophagy activity by mt-Keima (mitokeyma) fluorescent protein quantification, flow cytometry. Format: cell-based. The conditions noted are these: for mitophagy activity compared to the con group / concentration showing maximum mitophagy activity: BEAS-2B; for mitophagy activity compared to the con group: 20 µM, 24 hours, flow cytometer (FIG. 2A); for concentration showing maximum mitophagy activity: concentration series (FIG. 2B); for times higher mitophagy activity than CD1-012: from concentrations of maximum mitophagy activity. The source says:
By utilizing these characteristics, mt-Keima can be expressed specifically in mitochondria, and by performing integrated analysis of the fluorescence signals at 458 nm and 561 nm, the fluorescence signal can be analyzed when mitochondria in a neutral environment (pH=7.4-7.8) are converted to an acidic environment (pH=4.5) by lysosomes delivered from mitophagy, allowing for quantitative measurement of mitophagy activity.
Specifically, a mitokeyma fluorescent protein quantification method, which allows for the quantitative measurement of mitophagy activity in living cells, was used. […] After treatment, the activity of mitophagy was measured using a flow cytometer. As a negative control, a control group (Control, con) without compound treatment was used, and as a positive control, CCCP (10 μM), which experimentally induces mitophagy activity, and CD1-012, a precursor of the compound of the present disclosure known to induce mitophagy activity, were used.
(In general: Flow cytometry measures light scatter and fluorescence of single cells or particles in a stream.)

“Also recorded” adds a separate entry of the source. Read-outs that look alike come from different tables or passages of the source.

Turning to `N#CC(C#N)=NNc1cccc(Cl)c1` [CCCP, reference compound], in series [1], the “size and number of colonies (cytotoxicity)” value is “decrease in both the size and number of colonies”.

Take `C=CCc1c2[n+](cc3c(OC)c(OC)ccc13)CCc1cc3c(cc1-2)OCO3` [CD1-386]: in series [2], the “mitophagy activity compared to the con group” value is “best mitophagy activity promotion; also recorded: promote the activity of mitophagy”, the “concentration showing maximum mitophagy activity” value is 5 µM and the “times higher mitophagy activity than CD1-012” value turned out to be 4 times. Regarding `Oc1cc2c(cc1O)C1=Cc3ccc(O)c(O)c3CN1CC2` [CD1-367], in series [1] (BEAS-2B, treated 24 hours, cultured 2 weeks (FIG. 4)), the “size and number of colonies (cytotoxicity)” value is “except for CD1-367, did not exhibit cytotoxicity”. The “mitophagy activity compared to the con group” value in series [2] was “promote the activity of mitophagy”.

In the case of `COc1ccc2c(c1OC)CN1CCc3cc4c(cc3C1=C2)OCO4` [CD1-363], the “mitophagy activity compared to the con group” value in series [2] is reported as “promote the activity of mitophagy”. `COc1ccc2c(Cc3ccccc3)c3[n+](cc2c1OC)CCc1cc2c(cc1-3)OCO2` [CD1-404]: the “mitophagy activity compared to the con group” value in series [2] is “promote the activity of mitophagy”. Consider `Oc1cc2c(cc1O)-c1cc3ccc(O)c(O)c3c[n+]1CC2` [CD1-271], for which the “mitophagy activity compared to the con group” value in series [2] is recorded as “promote the activity of mitophagy”. Consider `CCc1c2[n+](cc3c(OC)c(OC)ccc13)CCc1cc3c(cc1-2)OCO3` [CD1-409], for which, in series [2], the “mitophagy activity compared to the con group” value is “best mitophagy activity promotion; also recorded: promote the activity of mitophagy”, the “concentration showing maximum mitophagy activity” value worked out at 10 µM and the “times higher mitophagy activity than CD1-012” value stood at 2 times.

Values taken from US20250332158A1, “COMPOSITION FOR PROMOTING MITOPHAGY ACTIVITY COMPRISING ISOQUINOLINE DERIVATIVE COMPOUND AS ACTIVE INGREDIENT AND USE THEREOF” (ALTMEDICAL CO., LTD., priority 2022, published 2025).
